“Also recorded” adds a separate entry of the source.
Test system: cultured cardiomyocytes
Test: Propagation of pulsation in cultured cardiomyocytes after drug administration, shown by two-dimensional color maps of the motion amount absolute value
Assay type: cell-based
Conditions: for speed of propagation of pulsation / state (direction, path) of propagation of pulsation: compared with organic solvent (control); for state (direction, path) of propagation of pulsation: color maps over 0 to 240 ms; for stop of propagation of pulsation / region without pulsation (motionless region): within the observation region
Excerpt: A drug evaluation apparatus 100 illustrated in FIG. 3 is an apparatus that conducts evaluation of a drug administered to cultured cardiomyocytes 110 by observing a motion of the cardiomyocytes 110. […] The imaging unit 101 images the cultured cardiomyocytes 110 during a predetermined period. That is, the imaging unit 101 obtains a moving image of the cultured cardiomyocytes 110 as an object. The imaging unit 101 images the cultured cardiomyocytes 110 before and after the drug administration. Note that the imaging unit 101 may image the cultured cardiomyocytes 110 several times after the drug administration according to a predetermined condition, such as after a predetermined time having passed, for example. The evaluation index data generation unit 103 performs, in each frame image of the supplied object to be evaluated image data 112, motion detection of the object to be observed (cultured cardiomyocytes 110) for each block that is a subregion obtained by dividing all regions of an image of the object to be observed (cultured cardiomyocytes 110) into a plurality of regions. The evaluation index data generation unit 103 expresses the detected motion of each block as a motion vector, and obtains the magnitude of the motion vector (motion amount). Note that this motion amount is an absolute value, and therefore, hereinafter, the motion amount will be also referred to as a motion amount absolute value. The evaluation unit 104 maps the motion amount absolute value supplied as the evaluation index data 113 into a two-dimensional color map, and evaluates the drug by expressing the state of propagation of pulsation and further, by quantitatively evaluating the state thereof. The evaluation unit 104 outputs the two-dimensional color map and a quantitative evaluation result as an evaluation value 114. The two-dimensional color map indicates the size of a parameter at each position on a plane in color. In this case, the plane represents an observation region of the cultured cardiomyocytes 110, and the color represents the motion amount absolute value (size of the value). That is, a position of the motion amount absolute value is represented by a position on the plane, and the size of the value is represented in color. That is, a distribution of the motion amount absolute value within the observation region is indicated by a change of the color on the plane. Examples of such a two-dimensional color map are illustrated in FIGS. 4 to 6. The eight color maps illustrated in FIG. 4 respectively indicate the distribution of the motion amount absolute value within the observation region, and a position on the color map indicates a position within the observation region and higher color density indicates a larger motion amount absolute value. […] Note that the arrows on the color maps are drawn for the purpose of description, and they are not drawn on actual color maps.

Structure (SMILES)	speed of propagation of pulsation	state (direction, path) of propagation of pulsation	stop of propagation of pulsation / region without pulsation (motionless region)
CC1(C)[C@@H](O)CC[C@]2(C)[C@H]3C(=O)C=C4[C@@H]5C[C@@](C)(C(=O)O)CC[C@]5(C)CC[C@@]4(C)[C@]3(C)CC[C@@H]12 [18-β-Glycyrrhetinic acid]	the speed of the propagation is slow	proceeds into various directions	the propagation of the pulsation temporarily stops
CC(C)NCC(O)c1ccc(NS(C)(=O)=O)cc1 (racemic) [DL-sotalol]	the speed of the propagation is slower than the left side	propagated from an upper left side to a lower right side, but the propagation stops within the observation region	pulsation is not caused in a part of the observation region in the right side; also recorded: the pulsation is not propagated to the right side portion of the observation region
CCCCCCCO [1-Heptanol]	the speed of the propagation is slow	linearly propagated as time passes while changing the direction to revolve	

From patent publication US10650534B2, “Display control and image processing of a cell image” (Sony Corporation, priority 2011, dated 2020)
